In the data set the test system is BT474 human breast carcinomas cell line. As to the kind of experiment: In vivo tumor model, BT474 (HER2+) xenograft. As to conditions: BT474 xenograft in CB-17/SCID mice, 100 mg/kg once per day oral gavage, 5 days on/2 days off, 4 weeks. The text has this:
Xenografts were initiated with BT474 human breast carcinomas cell line and maintained by serial subcutaneous transplantation in CB-17/SCID mice (Charles River). On the day of tumor implant, each test mouse received a 1 mm^3 BT474 fragment implanted subcutaneously in the right flank, and tumor growth was monitored as the average size approached the target range of 100 to 150 mm3. About three weeks post-implantation, the animals were randomized and grouped based on tumor volume and mouse body weight. […] Tumors were measured in two dimensions using calipers, and volume was calculated using the formula: Tumor Volume (mm^3)=w^2× ½.

As for `CC1(N)CCN(c2cnc3c(-c4cccc(Cl)c4Cl)n[nH]c3n2)CC1` [Example 1, 1-(3-(2,3-dichlorophenyl)-1H-pyrazolo[3,4-b]pyrazin-6-yl)-4-methylpiperidin-4-amine], the “tolerability (body weight)” value was “tolerated dose” and the “tumor growth (tumor volume)” value is on record as “significant suppression of tumor growth”.

Values taken from patent publication US11466017B2, “Heterocyclic inhibitors of PTPN11” (priority 2011, dated 2022).
